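Each compound was tested at five concentrations against cells in 96-well plates for 48 hours. GI50 is the concentration that inhibits growth by half. TGI marks complete inhibition of growth.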
Legend:
Assay in all cases: NCI tumour cell line growth inhibition, 48 h
MOLT-4 leukemia = test system: MOLT-4 leukemia
U251 CNS = test system: U251 CNS
K-562 leukemia = test system: K-562 leukemia
COLO 205 colon = test system: COLO 205 colon
CAKI-1 renal = test system: CAKI-1 renal
UO-31 renal = test system: UO-31 renal
IGROV1 ovarian = test system: IGROV1 ovarian
SNB-19 CNS = test system: SNB-19 CNS
EKVX NSCLC = test system: EKVX NSCLC
BT-549 breast = test system: BT-549 breast

| Compound | TGI (MOLT-4 leukemia) [µM] | TGI (U251 CNS) [µM] | TGI (K-562 leukemia) [µM] | TGI (COLO 205 colon) [µM] | TGI (CAKI-1 renal) [µM] | TGI (UO-31 renal) [µM] | TGI (IGROV1 ovarian) [µM] | TGI (SNB-19 CNS) [µM] | TGI (EKVX NSCLC) [µM] | TGI (BT-549 breast) [µM] | GI50 (MOLT-4 leukemia) [nM] | GI50 (COLO 205 colon) [nM] | GI50 (UO-31 renal) [nM] | GI50 (IGROV1 ovarian) [nM] |
| --- | --- | --- | --- | --- | --- | --- | --- | --- | --- | --- | --- | --- | --- | --- |
| CCNc1cc2c3c(c1)CCN3CCC2 | > 10 | > 10 | 5.05 | > 10 | > 10 | > 10 | > 10 | > 10 | > 10 | – | – | – | – | – |
| O=C(O)/C=C\C(=O)Nn1c(Cc2ccc(Cl)cc2)n[nH]c1=O | > 100 | > 100 | > 100 | > 100 | > 100 | – | > 100 | – | > 100 | > 100 | – | – | – | – |
| [N-]=[N+]=NCC(O)Cn1cnc2c(NC(=O)c3ccccc3)ncnc21 (stereo not given) | > 100 | > 100 | > 100 | 76.9 | > 100 | > 100 | > 100 | > 100 | > 100 | – | – | – | – | – |
| Cn1c(=O)sc2cc(C(=S)N3CCCCC3)ccc21 | > 100 | > 100 | > 100 | > 100 | > 100 | – | > 100 | > 100 | > 100 | > 100 | – | – | – | – |
| CC1(C)C=C(/C=N/Nc2ccccc2)C(C#N)=C(O)C1(C#N)C#N | > 100 | – | > 100 | > 100 | > 100 | > 100 | > 100 | > 100 | > 100 | – | – | – | – | – |
| C=C1CC(C)(c2cccc(Nc3nc4ccccc4c4occc34)c2)OC1=O (stereo not given) | > 100 | > 100 | – | 17.6 | 16.7 | 5.04 | – | 59.4 | 27.9 | 17.4 | – | – | – | – |
| CC1(C)Oc2ccc3c(=O)cc(-c4ccccc4)oc3c2C1C(=O)O (stereo not given) | > 100 | > 100 | > 100 | > 100 | > 100 | – | > 100 | – | > 100 | > 100 | – | – | – | – |
| COC(=O)Cn1cnc2c(Cl)nc(Nc3ccccc3)nc21 | 84.7 | > 100 | > 100 | > 100 | – | – | 56.1 | > 100 | 88 | > 100 | – | – | – | – |
| CSc1cnc2ccccc2c1Sc1c[nH]c2ccccc2c1=O | > 44.7 | 23.8 | > 58.1 | 22.7 | – | 45.1 | 43.1 | 65.4 | > 45.8 | – | – | – | – | – |
| Cc1c2ccncc2c(C)c2c1[nH]c1ccc(OCCN(C)C)cc12 | 0.157 | 0.946 | 5.21 | 1.3 | 1.89 | 1.75 | 1.42 | 0.958 | 1.51 | – | – | – | – | – |
| NC(=S)NC/C=C/Cl | > 100 | – | > 100 | > 100 | > 100 | > 100 | > 100 | > 100 | > 100 | > 100 | – | – | – | – |
| O=C(O)c1ccccc1C1c2ccccc2Oc2ccccc21 | > 100 | > 100 | > 100 | – | > 100 | > 100 | > 100 | > 100 | > 100 | > 100 | – | – | – | – |
| COc1cc(N(CCC#N)CCC#N)ccc1/C=N\NC(=O)c1ccc(C)cc1 | > 100 | 30.8 | > 100 | > 100 | > 100 | – | > 100 | > 100 | > 100 | > 100 | – | – | – | – |
| CC(=O)OC[C@H]1On2nnnc2[C@H](OC(C)=O)[C@@H](OC(C)=O)[C@@H]1OC(C)=O | > 100 | > 100 | > 100 | > 100 | > 100 | > 100 | > 100 | – | > 100 | > 100 | – | – | – | – |
| COc1ccc(C(=O)/C=C/c2cc(-c3cc(OC)c(OC)c(OC)c3)n[nH]2)cc1 | 6.82 | – | – | 3.24 | – | 2.84 | 4.81 | – | – | – | 2670 | 1730 | 1450 | 2210 |
| S=C1SC(=Nc2ccccc2)C(=Nc2ccccc2)N1c1ccc2ccccc2c1 | – | > 100 | > 100 | > 100 | > 100 | > 100 | > 100 | > 100 | – | > 100 | – | – | – | – |
| COc1cc(Oc2nc3cc(F)c(F)cc3nc2-c2ccccc2)cc(OC)c1OC | > 100 | > 100 | – | > 100 | > 100 | > 100 | > 100 | > 100 | > 100 | > 100 | – | – | – | – |
| O=c1c2ccccc2nc2ccc3c(Cl)[nH][nH]c3c12 | > 79 | > 100 | > 100 | > 100 | 85.3 | > 92.2 | > 100 | > 100 | > 100 | – | – | – | – | – |
| O=C1NC(Cc2ccc(O)cc2)C(=O)NC1Cc1ccc(O)cc1 (stereo not given) | > 100 | > 100 | > 100 | > 100 | > 100 | > 100 | > 100 | > 100 | > 100 | – | – | – | – | – |
| N#Cc1c(N)nc2c3c1NC(=O)C(C(N)=O)C3c1ccccc1O2 (stereo not given) | > 100 | > 100 | > 100 | > 100 | > 100 | > 100 | 79.8 | > 100 | > 100 | – | – | – | – | – |
| CCC(=O)OC1CCn2c1nc1c2C(=O)C(C)=C(NC(C)=O)C1=N (stereo not given) | – | 17.2 | > 100 | 3.18 | 1.94 | 4.64 | 5.54 | 16.8 | 5.48 | – | – | – | – | – |
| Clc1cc(Cl)ncn1 | > 100 | > 100 | > 100 | > 100 | > 100 | > 100 | > 100 | > 100 | – | – | – | – | – | – |
| CC(=O)OCC1OC(n2c(C)c(C)c(C)c(C#N)c2=S)C(OC(C)=O)C(OC(C)=O)C1OC(C)=O (stereo not given) | > 100 | > 100 | > 100 | > 100 | > 100 | 59.7 | > 100 | > 100 | 94.3 | – | – | – | – | – |
| O=C1C2C=CC(n3[nH]c(=O)n(Cc4ccccc4)c3=O)CC2C(=O)N1c1ccc(Br)cc1 (stereo not given) | > 100 | > 100 | > 100 | > 100 | > 100 | > 100 | > 100 | > 100 | > 100 | – | – | – | – | – |
| COc1ccc(C)cc(=O)c1O | > 100 | > 100 | > 100 | > 100 | > 100 | > 100 | > 100 | > 100 | > 100 | – | – | – | – | – |

Source: PubChem BioAssay (NCI)
